{
  "source": "paper PMC6668022",
  "about": "(Pharmaceutical research, 2019)",
  "key": {"EBOV [1]": {"test_system": "EBOV", "test": "microbe, parasite or virus in culture", "format": "cell-based, Ebola virus"}, "in vitro": {"test": "in vitro", "conditions": "human"}, "HeLa cells": {"test_system": "HeLa cells", "conditions": "read-out: HeLa CC50; n=2"}, "EBOV [2]": {"test_system": "EBOV", "conditions": "in vivo, 30 mg/kg/day; cited from earlier work"}, "[3]": {"test_system": "VP35-nucleoprotein interface", "conditions": "cited from earlier work"}, "[4]": {"conditions": "Zaire ebolavirus, HeLa, 24 h, read-out: EC50 Activity against EBOV, n=4"}, "[5]": {"conditions": "read-out: EC50 Activity against EBOV, n=4"}},
  "note": "Values joined by “and” are separate entries in the source; they are usually repeats but may differ in a detail not shown here. Identical values can stand only once. “Also recorded” adds a separate entry of the source. Like-named read-outs stand apart in the source and are kept apart here.",
  "data": [
    {"molecule": "CC(=O)OCc1ccccc1", "note": "[Benzyl acetate]", "values": [
      {"measurement": "EC50", "setting": "EBOV [1]; [4]", "result": 10, "unit": "µM"},
      {"measurement": "EC50", "setting": "EBOV [1]; [5]", "result": "10.7 ± 5", "unit": "µM"},
      {"measurement": "CC50", "setting": "in vitro", "result": "> 50", "unit": "µM"}
    ]},
    {"molecule": "C=CCc1ccc(O)c(OC)c1", "note": "[Eugenol]", "values": [
      {"measurement": "EC50", "setting": "EBOV [1]; [4]", "result": "1.3 ± 0.5", "unit": "µM"},
      {"measurement": "CC50", "setting": "in vitro", "result": "> 50", "unit": "µM"}
    ]},
    {"molecule": "CC(C)[C@@H]1CC[C@@H](C)C[C@H]1O", "note": "[L- menthol]", "values": [
      {"measurement": "EC50 Activity against EBOV", "setting": "EBOV [1]; n=4", "result": "no appreciable activity; also recorded: inactive"}
    ]},
    {"molecule": "NC(=O)c1cccnc1", "note": "[Nicotinamide, reference compound]", "values": [
      {"measurement": "EC50 Activity against EBOV", "setting": "EBOV [1]; n=4", "result": "inactive"}
    ]},
    {"molecule": "O=C(O)c1cccnc1", "note": "[Nicotinic acid, reference compound]", "values": [
      {"measurement": "EC50 Activity against EBOV", "setting": "EBOV [1]", "result": "inactive"}
    ]},
    {"molecule": "COc1ccc(C=O)cc1", "note": "[P-anisaldehyde]", "values": [
      {"measurement": "EC50", "setting": "EBOV [1]; [4]", "result": 2.8, "unit": "µM"},
      {"measurement": "EC50", "setting": "EBOV [1]; [5]", "result": "2.9 ± 0.6", "unit": "µM"},
      {"measurement": "CC50", "setting": "in vitro", "result": "> 50", "unit": "µM"}
    ]},
    {"molecule": "CC(=O)OCCc1ccccc1", "note": "[Phenethyl acetate]", "values": [
      {"measurement": "CC50", "setting": "HeLa cells", "result": "> 50", "unit": "µM"},
      {"measurement": "EC50", "setting": "EBOV [1]; [5]", "result": "10 µM and 10.4 µM"}
    ]},
    {"molecule": "CCN(CC)CCOc1ccc2c(c1)C(=O)c1cc(OCCN(CC)CC)ccc1-2", "note": "[tilorone]", "values": [
      {"measurement": "efficacy in a mouse model of EBOV infection", "setting": "EBOV [2]", "result": 100, "unit": "%"}
    ]},
    {"molecule": "Cc1ccc(C(=O)c2cc(O)c(O)c([N+](=O)[O-])c2)cc1", "note": "[tolcapone]", "values": [
      {"measurement": "IC50", "setting": "[3]", "result": 2, "unit": "µM"}
    ]}
  ]
}
